Source: paper PMC11610669, “A Spectroscopic Study on the Amyloid‐β Interaction with Clicked Peptide‐Porphyrin Conjugates: a Vision Toward the Detection of Aβ Peptides in Aqueous Solution” (Chembiochem, 2024)

Experiments:
[1] = target: Aβ42 (Homo sapiens, UniProt P05067); assay: UV-Vis of conjugates with equimolar Aβ42; format: biochemical; settings: 5 μM conjugate, equimolar Aβ42, 10 mM phosphate buffer pH 7.4, 0, 24, 48 and 120 h
Description: The UV‐Vis spectra of porphyrin‐peptide conjugates (5 μM) were recorded in the presence of an equimolar ration of Aβ42 monomers at 0, 24, 48 and 120 h (Figure 2S). […] Therefore, the interaction of the peptide‐porphyrin conjugates with Aβ was further studied using CD spectroscopy. The Aβ42 aggregation process was monitored either in the absence or in the presence of an equimolar amount of the conjugated peptides. A series of CD control experiments were preventively carried out to assess the propensity of the porphyrin‐peptide conjugates to adopt a β‐sheet conformation. The corresponding CD curves are shown in the supplementary material (Figure 3S). […] We then evaluated the ability of the porphyrin‐peptide conjugates to affect the Aβ42’s aggregation process. This was accomplished by running a series of CD experiments on the binary systems in the same experimental conditions as the control CD measurements. A 5 μM Aβ42 sample was used as a positive control of the aggregation process (Figure 3, panel a). In this case, the curve profiles indicate that at 0 h, Aβ42 is predominantly in the random coil conformation, as evidenced by the negative ellipticity around 200 nm. […] The typical dichroic profile characterized by a negative ellipticity at λ=222 nm and a positive band at λ=200 is indicative of this event (Figure 3, panel a).
Spectra were recorded on a Jasco V‐670 Spectrophotometer at room temperature. All measurements were performed in the 300–650 nm wavelength region, in a 10 mM phosphate buffer solution at pH 7.4 using a 1 cm path length quartz cell. The spectra of all the peptide‐porphyrin conjugates, either in the absence or in the presence of equimolar Aβ42, were acquired at 5 μM. In some cases, the same sample solution was used to run the CD spectra. The final concentrations of Aβ42 and peptide conjugates were 5 μM (1 : 1 molar ratio).

[2] = tested on: Aβ8–20; assay: CD of conjugate with Aβ8–20 fragment; format: binding
Description: To better visualize how the induced signal increases as Aβ42 adopts the β‐sheet conformation, a comparative graph displaying the absolute value of the CD intensities at the maximum absorption wavelength for each derivative, either in the presence or absence of Aβ42 over the same time interval, is reported in the SI (Figure 7S). […] (Figure 8S panel a). […] We assume that the conjugate Zn‐Ph‐Pep conjugate could similarly interact with the Aβ8–20 fragment.
Spectra were recorded on a J‐810 spectrometer (Jasco, Japan) under a constant flow of N2 at room temperature. The CD measurements were performed in the wavelength regions (190–260 nm, 195–350 nm and 350–500 nm) using a 1 cm path length quartz cell. All aggregation kinetics were monitored up to 120 hours. The CD spectra were recorded for Aβ42 (5 μM and 20 μM) monomer in the absence or in the presence of porphyrin‐peptide conjugates (5 μM and 20 μM for the 1 : 1 molar ratios). Monomerized samples of Aβ42 (5 μM and 20 μM) were solubilized in 50 μL of NaOH 20 mM (2,5 %) and after were diluted with 1950 μL of 10 mM phosphate buffer at pH 7.4 pure or containing the solubilized conjugates.

[3] = Porphyrin fluorescence in buffer; format: physicochemical; settings: 5 μM, 10 mM phosphate buffer pH 7.4, excitation 425 nm; vs pristine MCPTPyP
From the text: Peptide conjugation influences the spectral features of the porphyrin chromophore as evidenced by the red shift in the absorption maximum in the region of the Soret band region. The Q bands are also affected, particularly in the Cu‐Ph‐Pep and Zn‐Ph‐Pep compounds (Figure 1). In this case the presence of a metal ion within the porphyrin's core might contribute to the observed spectral profile of these compounds. […] The fluorescence spectra of the investigated systems were also acquired in view of the interaction of the studied conjugates with cells (see below biological section).[41] The fluorescence spectra were recorded with the photoexcitation at 425±5 nm, in 10 mM phosphate buffer pH 7.4 and 5 μM concentration. The emission spectrum of the porphyrin precursor MCPTPyP ( Ph ) was also obtained for the sake of comparison.
Spectra were recorded on a Horiba Fluoro‐max‐4 spectrofluorometer from 440–800 nm in 1 nm steps, at an excitation wavelength λexc=425 nm, at room temperature. The final fluorescence spectra represent averages of at least three measurements. Bandwidths of 5 nm for both excitation and emission were used. The sample of the compound used to record absorption spectra were the same as those for the CD spectra.

Sequence of Aβ42 (P05067 672-713 limits assumed): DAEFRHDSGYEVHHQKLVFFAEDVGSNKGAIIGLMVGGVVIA

COC(=O)[C@H](Cc1cn(CCCC[C@H](NC(=O)CNC(C)=O)C(=O)N2CCC[C@H]2C(=O)NCC(=O)N[C@@H](CCCCN)C(=O)N[C@@H](CC(C)C)C(=O)N[C@H](C(=O)N[C@@H](Cc2ccccc2)C(=O)N[C@@H](Cc2ccccc2)C(N)=O)C(C)C)nn1)NC(=O)c1ccc(-c2c3nc(c(-c4cc[n+](C)cc4)c4ccc([nH]4)c(-c4cc[n+](C)cc4)c4nc(c(-c5cc[n+](C)cc5)c5ccc2[nH]5)C=C4)C=C3)cc1 [Zn‐Ph‐Pep]
UV-Vis spectral change in presence of Aβ42 [1]: may suggest a rapid formation of aggregated species | conformation of Aβ8–20/conjugate mixture ([2]; Far-UV CD): significant amount of random coil conformation | induced CD signal in visible region with Aβ8–20 ([2]; same experimental conditions as with Aβ42): no induced CD signal is clearly detectable | fluorescence emission intensity [3]: somewhat decreased
